# Article PMC3859723 (Biochemistry, 2013)
# Experiments:
# [1] = target: R. sphaeroides cytochrome c oxidase (RsCcO) wild-type (Cereibacter sphaeroides, UniProt P33517+Q03736); assay: biochemical; type: biochemical, Rhodobacter sphaeroides; settings: for Shape of response in ligand titration: activation at low ligand concentration followed by inhibition at higher concentration
# RsCcO E101A mutant [2] = target: T1, RsCcO E101A mutant (Cereibacter sphaeroides, UniProt P33517+Q03736, E101A); settings: cited from earlier work
# RsCcO E101A mutant [3] = target: T1, RsCcO E101A mutant; assay: biochemical; set-up: species or system Rhodobacter sphaeroides
# R. sphaeroides cytochrome c oxidase (RsCcO) wild-type, sequence (P33517 whole entry): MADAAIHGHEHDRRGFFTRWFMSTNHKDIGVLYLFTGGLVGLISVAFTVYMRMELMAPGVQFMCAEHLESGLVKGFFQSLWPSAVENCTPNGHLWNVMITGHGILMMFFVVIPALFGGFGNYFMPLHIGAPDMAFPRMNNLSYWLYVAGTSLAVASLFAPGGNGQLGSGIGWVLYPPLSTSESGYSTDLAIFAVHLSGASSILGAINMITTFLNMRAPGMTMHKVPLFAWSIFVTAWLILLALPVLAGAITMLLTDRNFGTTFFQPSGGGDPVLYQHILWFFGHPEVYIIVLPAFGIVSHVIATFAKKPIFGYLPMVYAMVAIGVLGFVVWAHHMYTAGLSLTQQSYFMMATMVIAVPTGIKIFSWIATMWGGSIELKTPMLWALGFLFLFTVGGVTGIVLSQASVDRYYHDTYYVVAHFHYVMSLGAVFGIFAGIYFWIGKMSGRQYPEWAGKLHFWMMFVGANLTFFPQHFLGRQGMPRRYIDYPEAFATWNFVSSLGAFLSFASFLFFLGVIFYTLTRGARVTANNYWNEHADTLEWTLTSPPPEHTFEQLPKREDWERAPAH
# R. sphaeroides cytochrome c oxidase (RsCcO) wild-type, sequence (Q03736 26-303): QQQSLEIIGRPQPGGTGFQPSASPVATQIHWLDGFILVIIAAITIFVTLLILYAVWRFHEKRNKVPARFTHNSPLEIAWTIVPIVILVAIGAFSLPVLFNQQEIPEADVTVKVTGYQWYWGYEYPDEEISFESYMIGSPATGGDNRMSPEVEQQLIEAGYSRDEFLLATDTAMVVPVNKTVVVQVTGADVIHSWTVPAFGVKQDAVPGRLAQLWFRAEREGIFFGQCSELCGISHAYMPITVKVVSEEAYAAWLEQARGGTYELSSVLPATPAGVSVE
# T1 sequence (P33517 whole entry): as the sequence (P33517 whole entry) above
# T1 sequence (Q03736 26-303 E101A): as the sequence (Q03736 26-303) above, with E76A counted along it
molecule,measurement,setting,value
CC(C)=CCC/C(C)=C/CC/C(C)=C/CO[P@@](=O)(O)OP(=O)(O)O (stereo in doubt) [farnesyl diphosphate],Effect on RsCcO activity at maximal ligand concentration,"[1]; WT, saturating cytochrome c",no significant effect
Nc1ncnc2c1ncn2[C@@H]1O[C@H](COP(=O)(O)OP(=O)(O)O)[C@@H](O)[C@H]1O [ADP],Effect on RsCcO activity at maximal ligand concentration,"[1]; WT, saturating cytochrome c",no significant effect
"Nc1ncnc2c1ncn2[C@@H]1O[C@H](COP(=O)(O)OP(=O)(O)NP(=O)(O)O)[C@@H](O)[C@H]1O [ATP analog, adenosine 5′-(β, γ-imido) triphosphate]",Competition with DOC inhibition of RsCcO,"[1]; WT, 5 mM ATP analog, DOC 0–2 mM, saturating cytochrome c",prevented DOC in the 0–2 mM range from inhibiting RsCcO activity
same,Effect of ligand alone on RsCcO activity,"[1]; WT, 5 mM ligand, saturating cytochrome c",no effect
same,Shape of response in ligand titration,"[1]; WT, saturating cytochrome c",biphasic response
same,Effect on E101A mutant activity,RsCcO E101A mutant [2],very low stimulation and no inhibition of activity
"C[C@H](CCC(=O)O)[C@H]1CC[C@H]2[C@@H]3CC[C@@H]4C[C@H](O)CC[C@]4(C)[C@H]3C[C@H](O)[C@]12C [DOC, deoxycholate]",IC50,[1],1.4 mM
same,Mode of inhibition with respect to cytochrome c,"[1]; WT, 0–30 μM cytochrome c",noncompetitive inhibition
same,Maximal lowering of RsCcO activity,"[1]; WT, saturating cytochrome c",more than 90%
same,Mode of inhibition with respect to cytochrome c,"RsCcO E101A mutant [3]; E101A mutant, 0–30 μM cytochrome c",noncompetitive inhibition
Cc1cc2nc3c(=O)[nH]c(=O)nc-3n(C[C@H](O)[C@H](O)[C@H](O)COP(=O)(O)OP(=O)(O)OC[C@H]3O[C@@H](n4cnc5c(N)ncnc54)[C@H](O)[C@@H]3O)c2cc1C [FAD],Effect on RsCcO activity at maximal ligand concentration,"[1]; WT, saturating cytochrome c",no significant effect
"CC(=O)O[C@H]1C[C@@]2(C)[C@@H](C[C@@H](O)[C@H]3[C@@]4(C)CC[C@@H](O)[C@@H](C)[C@@H]4CC[C@@]32C)/C1=C(\CCC=C(C)C)C(=O)O [Fusidic acid, fusidic acid]",IC50,[1],3.4 mM
same,Ki,[1],2.5 mM
same,Shape of response in ligand titration,"[1]; WT, saturating cytochrome c",biphasic response
Nc1nc2c(ncn2[C@@H]2O[C@H](COP(=O)(O)OP(=O)(O)O)[C@@H](O)[C@H]2O)c(=O)[nH]1 [GDP],Effect on E101A mutant activity,RsCcO E101A mutant [2],very low stimulation and no inhibition of activity
NC(=O)c1ccc[n+]([C@@H]2O[C@H](COP(=O)([O-])OP(=O)(O)OC[C@H]3O[C@@H](n4cnc5c(N)ncnc54)[C@H](O)[C@@H]3O)[C@@H](O)[C@H]2O)c1 [NAD^+],Effect on RsCcO under low or high concentrations of cytochrome c,"[1]; WT, 0–30 μM cytochrome c",failed to affect RsCcO
same,Effect on RsCcO activity at maximal ligand concentration,"[1]; WT, saturating cytochrome c",no significant effect
C[C@]12CCC(=O)C=C1CC[C@@H]1[C@@H]2[C@@H](O)C[C@]2(C=O)[C@@H](C(=O)CO)CC[C@@H]12 [aldosterone],Effect on RsCcO under low or high concentrations of cytochrome c,"[1]; WT, 0–30 μM cytochrome c",failed to affect RsCcO
same,Effect on RsCcO activity at maximal ligand concentration,"[1]; WT, saturating cytochrome c",no significant effect
C[C@]12CC[C@@H]3c4ccc(O)cc4CC[C@H]3[C@@H]1CC[C@@H]2O [estradiol],Effect on RsCcO under low or high concentrations of cytochrome c,"[1]; WT, 0–30 μM cytochrome c",failed to affect RsCcO
same,Effect on RsCcO activity at maximal ligand concentration,"[1]; WT, saturating cytochrome c",no significant effect
C[C@]12CCC(=O)C=C1CC[C@@H]1[C@@H]2[C@@H](O)C[C@@]2(C)[C@H]1CC[C@]2(O)C(=O)CO [hydrocortisone],Effect on RsCcO under low or high concentrations of cytochrome c,"[1]; WT, 0–30 μM cytochrome c",failed to affect RsCcO
same,Effect on RsCcO activity at maximal ligand concentration,"[1]; WT, saturating cytochrome c",no significant effect
CC1=C(/C=C/C(C)=C/C=C/C(C)=C/C(=O)O)C(C)(C)CCC1 [retinoic acid],IC50,[1],1.7 mM
same,Ki,[1],0.14 mM
same,Shape of response in ligand titration,"[1]; WT, saturating cytochrome c",biphasic response
same,IC50,RsCcO E101A mutant [3],0.19 mM
C[C@]12CC[C@H]3[C@@H](CCC4=CC(=O)CC[C@@]43C)[C@@H]1CC[C@@H]2O [testosterone],Effect on RsCcO under low or high concentrations of cytochrome c,"[1]; WT, 0–30 μM cytochrome c",failed to affect RsCcO
same,Effect on RsCcO activity at maximal ligand concentration,"[1]; WT, saturating cytochrome c",no significant effect
cytochrome c: purified bovine heart cytochrome c used as the substrate,Km,"[1]; read-out: Km of cytochrome c, RsCcO WT and E101A, unchanged by DOC inhibition",~1 µM
